Measured values from patent US6797706B1, “Heterocyclecarboxamide derivative” (Yamanouchi Pharmaceutical Co., Ltd., priority 1999, dated 2004).

Columns and labels:
[1] = tested on: PCA reaction; experiment: Mouse Passive Cutaneous Anaphylaxis (PCA) Test; format: in vivo; settings: Male ICR (CD-1) mice; subcutaneously 30 minutes or orally 2 hours before antigen challenge
Procedure: 3. Mouse Passive Cutaneous Anaphylaxis (PCA) Test […] After 24 hours of the sensitization, 200 μl of 0.5% Evans blue solution containing 50 μg of DNP-conjugated bovine serum albumin was intravenously administered, and, after 30 minutes, each mouse was sacrificed through exsanguination to isolate both ears. […] The dye in the tissues was extracted with formaride and colorimetrically determined at 620 nm. A value obtained by subtracting the dye content of the left ear from the dye content of the right ear was used as the amount of dye leaked into the tissues by the PCA reaction. The PCA inhibition ratio by the test compound was calculated based on the following equation. In the formula, C: amount of the dye leaked into the tissue at the time of the administration of the vehicle alone, and x: amount of the dye leaked into the tissue at the time of the administration of the test compound. Inhibition ratio (%)={C-X}×100/C

[2] = tested on: release of serotonin; experiment: Serotonin Release Test; format: cell-based; settings: read-out: inhibitory activity as IC50 value against the release of serotonin
Procedure: 2. Serotonin Release Test
This was carried out in accordance with the method reported by Collado-Escobar et al. (Collado-Escobar, D et al. J. Immunol., 144: 3449-3457 (1990)).

[3] = molecular target: T1, Syk (Homo sapiens, UniProt P43405); experiment: Syk Tyrosine Kinase Inhibition Test (SPA system); format: biochemical
T1 construct: FLAG tag (8 amino acid residues) (C); made in house; host or cells: Sf-9 insect cells (baculovirus, pFASTBAC HT)
From the text: 1. Syk Tyrosine Kinase Inhibition Test
1) Preparation of Syk Protein
Human Syk gene, in the form where a gene of FLAG tag consisting of 8 amino acid residues was linked to the 3′-end, was cloned using RT-PCR method from total RNA prepared from Jurkat cells. The amplified cDNA was incorporated into a vector, pFASTBAC HT, contained in Baculovirus Expression System (GIBCO BRL Inc.). The pFASTBAC HT is designed in such a manner that a His tag consisting of 6 histidine residues can be fused to the 5′-end of Syk. This plasmid DNA was introduced into competent cells, DH10BAC, contained in the Baculovirus Expression System to prepare DNA of recombinant virus. Thereafter, the recombinant virus (culture supernatant) was obtained by transfection of the DNA of recombinant virus into Sf-9 cells (ATCC). […]
SPA (Scintillation Proximity Assay) is a system developed by Amersham making use of a phenomenon in which scintillation occurs when a molecule having a radioactivity is in the proximity of (linked to) the surface of plastic beads containing a scintillant included therein. […]
The plate was sealed, stirred, allowed to stand at room temperature for 15 minutes and then centrifuged at 1,500 rpm for 3 minutes to precipitate the SPA beads. Radioactivity of each well was measured using TOP COUNT (PACKARD), and the tyrosine phosphorylation activity by Syk was calculated.

IC50 [2]	inhibitory activity against Syk at 1 μM [3]	Structure (SMILES)	suppression of PCA reaction [1]
–	–	Cc1cccc(Nc2nc(N[C@@H]3CCCC[C@@H]3N)ccc2C(N)=O)c1.Cl (relative stereo) [Example 1]	excellently suppressed PCA reaction
–	–	Cc1cccc(Nc2nc(N[C@@H]3CCCC[C@@H]3N)cnc2C(N)=O)c1 (relative stereo) [Example 2, 5-(cis-2-aminohexylamino)-3-(3-methylanilino)pyrazine-2-carboxamide]	excellently suppressed PCA reaction
≤ 0.1 µM	–	COc1cccc(Nc2nc(N[C@@H]3CCCC[C@@H]3N)cnc2C(N)=O)c1 (relative stereo) [Example 8, 5-(cis-2-aminocyclohexylamino)-3-(3-methoxyanilino)pyrazine-2-carboxamide]	excellently suppressed PCA reaction
≤ 0.1 µM	–	COc1cc(Nc2nc(N[C@@H]3CCCC[C@@H]3N)cnc2C(N)=O)cc(OC)c1 (relative stereo) [Example 10, 5-(cis-2-aminocyclohexylamino)-3-(3,5-dimethoxyanilino)pyrazine-2-carboxamide]	excellently suppressed PCA reaction
≤ 0.1 µM	–	CSc1ccc(Nc2nc(N[C@@H]3CCCC[C@@H]3N)cnc2C(N)=O)cc1 (relative stereo) [Example 11, 5-(cis-2-aminocyclohexylamino)-3-(4-methylsulfanylanilino)pyrazine-2-carboxamide]	excellently suppressed PCA reaction
–	did not exhibit any inhibitory activity	CN(C)C(=O)c1cnc(NCCN)nc1Nc1cccc(C(F)(F)F)c1 [2-(2-aminoethylamino)-N,N-dimethyl-4-(3-trifluoromethylanilino)pyrimidine-5-carboxamide]	–
–	did not exhibit any inhibitory activity	CNC(=O)c1cnc(NCCN)nc1Nc1cccc(C(F)(F)F)c1 [2-(2-aminoethylamino)-N-methyl-4-(3-trifluoromethylanilino)pyrimidine-5-carboxamide]	–
